How the values were obtained:
CHO-K1 = experiment: Impact of phloretin on CHO-K1 engineered for constitutive SEAP expression (SEAP production, viable cell density); format: cell-based, Chinese hamster; settings: 48 h
Method: CHO-K1 engineered for constitutive SEAP expression are cultivated in culture medium supplemented with different phloretin concentrations (0-100 μM) and SEAP production (bars) as well as maximum cell density are assessed after 48 h (line). Abbreviations: C.D.: Cell Density (10^6/mL); Phl.: Phloretin (μM)
To evaluate the stability of phloretin in culture medium and assess its impact on mammalian cells, standard ChoMaster® HTS medium is supplemented with increasing concentrations of phloretin (0, 25, 50, 75, 100 μM), and this medium is incubated in the presence and absence of CHO-K1 engineered for constitutive SEAP expression (pSEAP2-Control; PSV40-SEAP-pA, Clontech). […] Phloretin levels determined over a period of 64 h in cell-free culture medium establish a functional half-live of 70 h for this flavonoid.

TtgA2 (TtgR-p65) = experiment: PEACE: SEAP expression after transient co-transfection of pMG10 and pMG18 (PSV40-TtgA2-pA); format: cell-based, Pseudomonas putida DOT-T1E; settings: 48 h
From the text: Three different transactivators are designed, harboring either the VP16 (TtgA1; pMG11, TtgR-VP16) (Triezenberg S. J. et al., loc. cit.), the p65 (TtgA2; pMG18, TtgR-p65) (Urlinger S., et al., 2000, Gene 247(1-2):103-110) or the human E2F4 (TtgA3; pMG19, TtgR-E2F4) (Akagi K., Kanai M., Saya H., Kozu T., Berns A., 2001, Nucleic Acids Res 29(4):e23) transactivation domains. pMG11, pMG18 or pMG19 are co-transfected with pMG10 (PTtgR1-SEAP-pA) into CHO-K1, HEK-293 as well as primary human fibroblasts and keratinocytes, and SEAP expression is profiled after 48 h of cultivation in the presence or absence of 50 μM phloretin. […] All transactivators mediate similar basal expression levels when phloretin is […] in the medium, but due to their cell-type specificity and graded maximum transcription-initiation capacities, the three transactivators offer a selection of defined expression windows.

[1] = rodents, cited from earlier work

Q: With O=C(CCc1ccc(O)cc1)c1c(O)cc(O)cc1O [phloretin, 3-[4-hydroxyphenyl]-1-[2,4,6-trihydroxyphenyl]-1-propanone] as the molecule, how does the “impact on heterologous protein (SEAP) production” value (CHO-K1; CHO-K1 constitutive SEAP (pSEAP2-Control), phloretin 0, 25, 50, 75, 100 μM) read?
A: no negative impact on heterologous protein production

Q: And the “viable cell density / CHO-K1 proliferation” value (CHO-K1; phloretin up to 100 μM)?
A: does not compromise CHO-K1 proliferation

Q: And the “SEAP Production” value (TtgA2 (TtgR-p65); CHO-K1, phloretin 50 μM)?
A: 0.8 ± 0.05 U/L

Q: What about the “SEAP Production” value (TtgA2 (TtgR-p65); HEK-293, phloretin 50 μM) of the same molecule?
A: 1.9 ± 0.1 U/L

Q: What about the “SEAP Production” value (TtgA2 (TtgR-p65); HaCaT, phloretin 50 μM) of the same molecule?
A: 0.5 ± 0.05 U/L

Q: And the “SEAP Production” value (TtgA2 (TtgR-p65); human primary fibroblasts, phloretin 50 μM)?
A: 0.2 ± 0.02 U/L

Q: What about the “SEAP Production” value (TtgA2 (TtgR-p65); human primary keratinocytes, phloretin 50 μM) of the same molecule?
A: 0.3 ± 0.02 U/L

Q: And the half-life in vivo [1]?
A: rather short half-life in vivo

Q: And the “systemic distribution after dermal administration” value ([1]; dermal administration)?
A: systemically spread

Reference: patent publication US8653046B2, “Controlling transgene expression across the skin” (ETH Zurich, priority 2009, dated 2014)
